# Assay results reported in US20090215678A1, “Preventing Vertical Endoparasite Infections” (BAYER HEALTHCARE AG, priority 2004, published 2009).
# How the values were obtained:
# [1] = system: Toxocara canis; assay: Prevention of vertical (prenatal) Toxocara canis infection in pups of experimentally infected beagle bitches treated during pregnancy; type: in vivo; details: for percentage efficacy, number of excreted eggs per gram of faeces: measured in pups; for percentage efficacy, number of intestinal stages in the intestine: pups euthanised on 35th day of life
# Procedure: (§1) The investigations were carried out on eighteen beagle bitches which had been experimentally infected with Toxocara canis. Six of these animals served as the untreated control group. Two different treatment schemes were used. In treatment group 1 (T1), six bitches were treated daily, from the 42nd day of pregnancy onwards until the birth of the pups, with in each case 1 mg of emodepside/kg of body weight, given orally as a tablet formulation; the six bitches in treatment group 2 (T2) were treated in the same way except that the treatment was only given every third day instead of daily. The efficacy of the treatment was assessed by determining three target quantities in the pups: number of somatic T. canis larvae in samples of the liver, lung, kidney and gastrointestinal tract including content and musculature (euthanasia of the pups directly after birth), number of excreted eggs per gram of faeces and number of intestinal T. canis stages after washing out the intestine (euthanasia of the pups on the 35th day of life).
# [2] = Tolerability in dams and pups in the beagle study; type: in vivo; details: 1 mg/kg orally, T1 and T2
# Procedure: as §1
# Incompatibility phenomena were not observed either in the dam or in the pups.
# [3] = T2: 1 mg/kg orally, every third day from 42nd day of pregnancy until birth
smiles,measurement,setting,value
CC(C)C[C@H]1C(=O)O[C@H](Cc2ccc(N3CCOCC3)cc2)C(=O)N(C)[C@@H](CC(C)C)C(=O)O[C@H](C)C(=O)N(C)[C@@H](CC(C)C)C(=O)O[C@H](Cc2ccc(N3CCOCC3)cc2)C(=O)N(C)[C@@H](CC(C)C)C(=O)O[C@H](C)C(=O)N1C [emodepside],mean value of percentage efficacy obtained from the target quantities,[1]; T1 (daily treatment),98.7%
same,"percentage efficacy, number of excreted eggs per gram of faeces","[1]; T1: 1 mg emodepside/kg body weight orally as tablet, daily from 42nd day of pregnancy until birth",99.9%
same,"percentage efficacy, number of somatic larvae in the digestive organs","[1]; T1: 1 mg/kg orally, daily from 42nd day of pregnancy until birth, pups euthanised directly after birth",96.4%
same,"percentage efficacy, number of intestinal stages in the intestine","[1]; T1: 1 mg/kg orally, daily from 42nd day of pregnancy until birth",99.9%
same,mean value of percentage efficacy obtained from the target quantities,[1]; T2 (treatment every third day),97.5%
same,"percentage efficacy, number of excreted eggs per gram of faeces",[1]; [3],99.9%
same,"percentage efficacy, number of somatic larvae","[1]; T2: 1 mg/kg orally, every third day from 42nd day of pregnancy until birth, pups euthanised directly after birth",93.8%
same,"percentage efficacy, number of intestinal stages in the intestine",[1]; [3],98.7%
same,prenatal infection with T. canis in the pups,[1]; both treatment schemes (T1 and T2),marked reduction
same,incompatibility phenomena in the dam or in the pups,[2],not observed
